Assay results: ChEMBL document CHEMBL3120109, “Discovery of Thienoimidazole-Based HCV NS5A Genotype 1a and 1b Inhibitors” (ACS Med Chem Lett, 2014)

Tests used:
[1] = Oral bioavailability in rat at 3 mg/kg; type: ADME, organism-based; details: in vivo
[2] = Half life in rat at 3 mg/kg, po; type: ADME, organism-based; design: dose 3 mg/kg, route oral; details: in vivo
[3] = AUC (0 to 8 hrs) in rat at 3 mg/kg, po; type: ADME, organism-based; design: time < 8 hr, dose 3 mg/kg, route oral; details: plasma
[4] = Volume of distribution at steady state in rat at 3 mg/kg, iv; type: ADME, organism-based; design: dose 3 mg/kg, route intravenous; details: in vivo, read-out: Vdss
[5] = Half life in rat at 3 mg/kg, iv; type: ADME, organism-based; design: dose 3 mg/kg, route intravenous; details: in vivo
[6] = Clearance in rat at 3 mg/kg, iv; type: ADME, organism-based; design: dose 3 mg/kg, route intravenous; details: in vivo
[7] = Cytotoxicity against human HuhET cells by [3H]thymidine incorporation assay; type: cell-based
Hepatitis C virus [8] = experiment: Antiviral activity against Hepatitis C virus genotype 1b infected in human Huh-5.2 cells assessed as decrease in HCV replicon RNA replication after 4 days by luciferase assay; type: functional, organism-based, Hepacivirus hominis; details: Huh-5-2, 96 h
Hepatitis C virus [9] = experiment: Antiviral activity against Hepatitis C virus genotype 1a infected in W11.8 cells assessed as decrease in NS5A expression in replicon cell after 4 days by luminescence based ELISA; type: functional, organism-based, Hepacivirus hominis; details: subtype 1a, W11.8, 96 h
[10] = Ratio of EC50 for Hepatitis C virus genotype 1a infected in W11.8 cells to EC50 for Hepatitis C virus genotype 1b infected in human Huh-5.2 cells; type: functional
[11] = Efflux ratio of permeability from basolateral to apical over apical to basolateral side in human Caco2 cells; type: ADME, cell-based; details: Caco-2
[12] = Metabolic stability in human liver microsomes assessed as intact compound level at 5 uM after 1 hr; type: ADME; details: read-out: Stability
[13] = Metabolic stability in rat liver microsomes assessed as intact compound level at 5 uM after 1 hr; type: ADME; details: read-out: Stability
Hepatitis C virus [14] = experiment: Ratio of EC50 for Hepatitis C virus genotype 1b harboring NS5A Y93H mutant gene to EC50 for Hepatitis C virus genotype 1b harboring wild type NS5A; type: functional, Hepacivirus hominis
Hepatitis C virus [15] = experiment: Ratio of EC50 for Hepatitis C virus genotype 1a harboring NS5A Q30R mutant gene to EC50 for Hepatitis C virus genotype 1a harboring wild type NS5A; type: functional, Hepacivirus hominis, subtype 1a
Hepatitis C virus [16] = experiment: Ratio of EC50 for Hepatitis C virus genotype 1a harboring NS5A M28T mutant gene to EC50 for Hepatitis C virus genotype 1a harboring wild type NS5A; type: functional, Hepacivirus hominis, subtype 1a
Hepatitis C virus [17] = experiment: Ratio of EC50 for Hepatitis C virus genotype 1a harboring NS5A Y93C mutant gene to EC50 for Hepatitis C virus genotype 1a harboring wild type NS5A; type: functional, Hepacivirus hominis, subtype 1a
Hepatitis C virus [18] = experiment: Ratio of EC50 for Hepatitis C virus genotype 1a harboring NS5A Y93H mutant gene to EC50 for Hepatitis C virus genotype 1a harboring wild type NS5A; type: functional, Hepacivirus hominis, subtype 1a

Row | Structure (SMILES) | EC50 (Hepatitis C virus [8]) [nM] | EC50 (Hepatitis C virus [9]) [nM] | CC50 [7] [nM] | Ratio EC50 [10] | other results
1 | COC(=O)N[C@H](C(=O)N1C[C@@H](C)C[C@H]1c1ncc(-c2cc3sc(-c4ccc(-c5cc6[nH]c([C@@H]7C[C@H](C)CN7C(=O)[C@@H](NC(=O)OC)C(C)C)nc6s5)cc4)cc3s2)[nH]1)C(C)C | 0.014 | 0.054 | > 20000 | 3.8 | bioavailability [1]: 6.7%; half-life [2]: 10.8 h; AUC(0-t) at 8 h [3]: 460 ng·h/mL; Vd [4]: 2 L/kg; half-life [5]: 5.1 h; clearance [6]: 5.1 mL/min/kg
2 | COC(=O)N[C@H](C(=O)N1C[C@@H](C)C[C@H]1c1ncc(-c2csc3ccc(-c4ccc(-c5cc6[nH]c([C@@H]7C[C@H](C)CN7C(=O)[C@@H](NC(=O)OC)C(C)C)nc6s5)cc4)cc23)[nH]1)C(C)C | 6.8 | > 100 | 16400 | – | –
3 | COC(=O)N[C@H](C(=O)N1C[C@@H](C)C[C@H]1c1ncc(-c2ccc(-c3ccc(-c4cc5[nH]c([C@@H]6C[C@H](C)CN6C(=O)[C@@H](NC(=O)OC)C(C)C)nc5s4)cc3)s2)[nH]1)C(C)C | 0.007 | 0.034 | 18300 | 5 | –
4 | COC(=O)N[C@H](C(=O)N1C[C@@H](C)C[C@H]1c1ncc(C#Cc2ccc(-c3ccc(-c4cc5[nH]c([C@@H]6C[C@H](C)CN6C(=O)[C@@H](NC(=O)OC)C(C)C)nc5s4)cc3)cc2)[nH]1)C(C)C | 0.01 | 1.12 | > 20000 | 112 | –
5 | COC(=O)N[C@H](C(=O)N1C[C@@H](C)C[C@H]1c1ncc(C#Cc2ccc(-c3cc4[nH]c([C@@H]5C[C@H](C)CN5C(=O)[C@@H](NC(=O)OC)C(C)C)nc4s3)cc2)[nH]1)C(C)C | 0.24 | 12 | > 20000 | 50 | –
6 | COC(=O)N[C@H](C(=O)N1C[C@@H](C)C[C@H]1c1ncc(-c2ccc(-c3ccc(-c4cc5[nH]c([C@@H]6C[C@H](C)CN6C(=O)[C@@H](NC(=O)OC)C(C)C)nc5s4)cc3)c(F)c2)[nH]1)C(C)C | 0.013 | 0.235 | 3100 | 18 | –
7 | COC(=O)N[C@H](C(=O)N1C[C@@H](C)C[C@H]1c1ncc(-c2ccc(-c3ccc(-c4cc5[nH]c([C@@H]6C[C@H](C)CN6C(=O)[C@@H](NC(=O)OC)C(C)C)nc5s4)cc3)cc2)[nH]1)C(C)C | 0.008 | 0.017 | > 20000 | 2 | bioavailability [1]: 25.6%; half-life [2]: 8.3 h; AUC(0-t) at 8 h [3]: 1540 ng·h/mL; Vd [4]: 2.4 L/kg; half-life [5]: 6.1 h; clearance [6]: 5.3 mL/min/kg; efflux ratio [11]: 2; remaining at 1 h, 5 µM [12]: 100%; remaining at 1 h, 5 µM [13]: 91%; Ratio EC50 (Hepatitis C virus [14]): 900; Ratio EC50 (Hepatitis C virus [15]): >500; Ratio EC50 (Hepatitis C virus [16]): >500; Ratio EC50 (Hepatitis C virus [17]): >15000; Ratio EC50 (Hepatitis C virus [18]): >15000
8 | COC(=O)N[C@H](C(=O)N1C[C@@H](C)C[C@H]1c1ncc(-c2cccc(-c3ccc(-c4cc5[nH]c([C@@H]6C[C@H](C)CN6C(=O)[C@@H](NC(=O)OC)C(C)C)nc5s4)cc3)c2)[nH]1)C(C)C | 0.007 | 7.5 | > 20000 | 1071 | bioavailability [1]: 16%; half-life [2]: 5.1 h; AUC(0-t) at 8 h [3]: 490 ng·h/mL; Vd [4]: 4.8 L/kg; half-life [5]: 5.1 h; clearance [6]: 13.5 mL/min/kg
9 | COC(=O)N[C@H](C(=O)N1C[C@@H](C)C[C@H]1c1nc2cc(-c3ccc(-c4ccc(-c5cc6[nH]c([C@@H]7C[C@H](C)CN7C(=O)[C@@H](NC(=O)OC)C(C)C)nc6s5)cc4)cc3)ccc2[nH]1)C(C)C | 0.024 | 0.622 | > 20000 | – | –
10 | COC(=O)N[C@H](C(=O)N1CCC[C@H]1c1ncc(-c2ccc(-c3ccc(-c4cnc([C@@H]5CCCN5C(=O)[C@@H](NC(=O)OC)C(C)C)[nH]4)cc3)cc2)[nH]1)C(C)C [DACLATASVIR] | – | 0.05 | – | – | –

Second part, led by results:

Row | EC50 (Hepatitis C virus [8]) [nM] | EC50 (Hepatitis C virus [9]) [nM] | Structure (SMILES) | CC50 [7] [nM] | Ratio EC50 [10] | other results
11 | 0.004 | 0.038 | COC(=O)N[C@H](C(=O)N1C[C@@H](C)C[C@H]1c1nc2cc(/C=C/c3ccc(-c4cc5[nH]c([C@@H]6C[C@H](C)CN6C(=O)[C@@H](NC(=O)OC)C(C)C)nc5s4)cc3)ccc2[nH]1)C(C)C | > 20000 | – | bioavailability [1]: 14.1%; half-life [2]: 5 h; AUC(0-t) at 8 h [3]: 820 ng·h/mL; Vd [4]: 2.7 L/kg; half-life [5]: 6.6 h; clearance [6]: 6 mL/min/kg
12 | 0.003 | 0.071 | COC(=O)N[C@H](C(=O)N1C[C@@H](C)C[C@H]1c1ncc(-c2ccc(-c3ccc(-c4cc5[nH]c([C@@H]6C[C@H](C)CN6C(=O)[C@@H](NC(=O)OC)C(C)C)nc5s4)cc3)cc2F)[nH]1)C(C)C | > 20000 | – | –
13 | 0.002 | 0.062 | COC(=O)N[C@H](C(=O)N1C[C@@H](C)C[C@H]1c1ncc(-c2ccc(-c3ccc(-c4cc5[nH]c([C@@H]6C[C@H](C)CN6C(=O)[C@@H](NC(=O)OC)C(C)C)nc5s4)cc3)c(C)c2)[nH]1)C(C)C | > 20000 | 31 | –
14 | 0.005 | 0.114 | COC(=O)N[C@H](C(=O)N1C[C@@H](C)C[C@H]1c1ncc(-c2ccc(-c3ccc(-c4cc5[nH]c([C@@H]6C[C@H](C)CN6C(=O)[C@@H](NC(=O)OC)C(C)C)nc5s4)cc3)cc2C)[nH]1)C(C)C | > 20000 | 23 | –
15 | 0.005 | 0.619 | COC(=O)N[C@H](C(=O)N1C[C@@H](C)C[C@H]1c1nc2cc(-c3ccc(-c4cc5[nH]c([C@@H]6C[C@H](C)CN6C(=O)[C@@H](NC(=O)OC)C(C)C)nc5s4)cc3)ccc2[nH]1)C(C)C | > 20000 | – | –
16 | 0.004 | 0.177 | COC(=O)N[C@H](C(=O)N1C[C@@H](C)C[C@H]1c1nc2cc(C#Cc3ccc(-c4cc5[nH]c([C@@H]6C[C@H](C)CN6C(=O)[C@@H](NC(=O)OC)C(C)C)nc5s4)cc3)ccc2[nH]1)C(C)C | > 20000 | – | –
